In patent US8530489B2 (Vertex Pharmaceuticals Incorporated, priority 2006, dated 2013):

target: PLK1 (Homo sapiens, UniProt P53350); assay: PLK1 Inhibition Assay I (radioactive-phosphate incorporation); format: biochemical; details: Ki(app); PLK1 Inhibition Assay I or II (table does not say which)
Procedure, shortened: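 Ki(app) values came from non-linear regression of initial rates after background subtraction, with phosphopeptide measured by phosphocellulose filter binding and scintillation counting. PLK1 at 2 nM was preincubated with compound (typically from 10 μM, 2-fold dilutions) for 10 min, then run 240 min at 25° C with 350 μM [γ-33P]ATP and 450 μM peptide substrate in HEPES pH 7.5 buffer.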

PLK1, sequence (P53350 whole entry): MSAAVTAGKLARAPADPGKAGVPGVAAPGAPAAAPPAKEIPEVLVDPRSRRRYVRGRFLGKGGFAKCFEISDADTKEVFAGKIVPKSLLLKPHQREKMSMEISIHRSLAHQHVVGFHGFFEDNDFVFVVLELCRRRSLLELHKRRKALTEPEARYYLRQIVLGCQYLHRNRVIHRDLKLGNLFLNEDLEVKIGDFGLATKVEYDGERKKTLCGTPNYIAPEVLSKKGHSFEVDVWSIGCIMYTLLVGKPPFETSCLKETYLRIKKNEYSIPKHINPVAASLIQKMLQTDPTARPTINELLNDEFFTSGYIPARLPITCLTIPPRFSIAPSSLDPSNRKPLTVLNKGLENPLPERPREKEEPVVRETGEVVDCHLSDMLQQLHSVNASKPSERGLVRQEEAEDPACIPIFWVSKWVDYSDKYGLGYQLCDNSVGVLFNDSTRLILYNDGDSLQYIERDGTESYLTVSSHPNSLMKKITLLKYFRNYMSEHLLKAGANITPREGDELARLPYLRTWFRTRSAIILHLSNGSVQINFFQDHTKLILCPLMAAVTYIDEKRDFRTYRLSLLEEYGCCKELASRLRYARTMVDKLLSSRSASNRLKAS

Row | Compound | Ki [nM]
1 | C[C@@H](Nc1ncc(C#N)c(-c2c[nH]c3ncc(C(F)(F)F)cc23)n1)C1CCN(C(=O)C(N)=O)CC1 [Compound I-258, 2-(4-((1R)-1-(5-cyano-4-(5-(trifluoromethyl)-1H-pyrrolo[2,3-b]pyridin-3-yl)pyrimidin-2-ylamino)ethyl)piperidin-1-yl)-2-oxoacetamide] | < 3
2 | N#Cc1cnc(NCc2cnc3[nH]ccc3c2)nc1-c1c[nH]c2ncc(C(F)(F)F)cc12 [Compound I-120, 2-((1H-pyrrolo[2,3-b]pyridin-5-yl)methylamino)-4-(5-(trifluoromethyl)-1H-pyrrolo[2,3-b]pyridin-3-yl)pyrimidine-5-carbonitrile] | 3 to 40
3 | N#Cc1cnc(NCc2cc(F)cc(F)c2)nc1-c1c[nH]c2ncc(C(F)(F)F)cc12 [Compound I-48, 2-(3,5-difluorobenzylamino)-4-(5-(trifluoromethyl)-1H-pyrrolo[2,3-b]pyridin-3-yl)pyrimidine-5-carbonitrile] | > 40
4 | COc1ccc(Sc2ncc(C#N)c(-c3c[nH]c4ncc(C(F)(F)F)cc34)n2)cc1 [II-3, 2-(4-methoxyphenylthio)-4-(5-(trifluoromethyl)-1H-pyrrolo[2,3-b]pyridin-3-yl)pyrimidine-5-carbonitrile] | > 40
5 | CC(Nc1ncc(C#N)c(-c2c[nH]c3ncc(C(F)(F)F)cc23)n1)c1ccc(N[C@@H]2CCN(C)C2)nc1 (stereo partly drawn) [Compound I-293, 2-(1-(6-((R)-1-methylpyrrolidin-3-ylamino)pyridin-3-yl)ethylamino)-4-(5-(trifluoromethyl)-1H-pyrrolo[2,3-b]pyridin-3-yl)pyrimidine-5-carbonitrile] | < 3
6 | C[C@@H](Nc1ncc(C#N)c(-c2c[nH]c3ncc(C(F)(F)F)cc23)n1)c1ccc(N2CCN3CCC[C@@H]3C2)nc1 [Compound I-298, 2-((R)-1-(6-((R)-hexahydropyrrolo[1,2-a]pyrazin-2(1H)-yl)pyridin-3-yl)ethylamino)-4-(5-(trifluoromethyl)-1H-pyrrolo[2,3-b]pyridin-3-yl)pyrimidine-5-carbonitrile] | < 3
7 | C[C@@H](Nc1ncc(C#N)c(-c2c[nH]c3ncc(C(F)(F)F)cc23)n1)c1ccc(O[C@@H]2CCN(C)C2)nc1 [Compound I-300, 2-(I-1-(6-(I-1-methylpyrrolidin-3-yloxy)pyridin-3-yl)ethylamino)-4-(5-(trifluoromethyl)-1H-pyrrolo[2,3-b]pyridin-3-yl)pyrimidine-5-carbonitrile] | < 3
8 | CCCC(C)Nc1ncc(C#N)c(-c2c[nH]c3ncc(C(F)(F)F)cc23)n1 (centres unmarked) [Compound I-35, 2-(pentan-2-ylamino)-4-(5-(trifluoromethyl)-1H-pyrrolo[2,3-b]pyridin-3-yl)pyrimidine-5-carbonitrile] | 3 to 40
9 | C[C@@H](Nc1ncc(C#N)c(-c2c[nH]c3ncc(C(F)(F)F)cc23)n1)[C@H]1CC[C@@H](NC(=O)CO)CC1 [Compound I-212, N-((1S,4s)-4-((1R)-1-(5-cyano-4-(5-(trifluoromethyl)-1H-pyrrolo[2,3-b]pyridin-3-yl)pyrimidin-2-ylamino)ethyl)cyclohexyl)-2-hydroxyacetamide] | < 3
10 | C[C@H](Nc1ncc(C#N)c(-c2c[nH]c3ncc(C(F)(F)F)cc23)n1)c1ccccc1 [Compound I-5, 2-((S)-1-phenylethylamino)-4-(5-(trifluoromethyl)-1H-pyrrolo[2,3-b]pyridin-3-yl)pyrimidine-5-carbonitrile] | > 40
11 | CC(O)CNc1ncc(C#N)c(-c2c[nH]c3ncc(C(F)(F)F)cc23)n1 (centres unmarked) [Compound I-91, 2-(2-hydroxypropylamino)-4-(5-(trifluoromethyl)-1H-pyrrolo[2,3-b]pyridin-3-yl)pyrimidine-5-carbonitrile] | 3 to 40
12 | N#Cc1cnc(SC2CCCCC2)nc1-c1c[nH]c2ncc(C(F)(F)F)cc12 [II-13, 2-(cyclohexylthio)-4-(5-(trifluoromethyl)-1H-pyrrolo[2,3-b]pyridin-3-yl)pyrimidine-5-carbonitrile] | > 40

Now from value to compound:

Row | Ki [nM] | Compound
13 | < 3 | C[C@@H](Nc1ncc(C#N)c(-c2c[nH]c3ncc(C(F)(F)F)cc23)n1)C1CCN(C(=O)[C@H](N)CC(N)=O)CC1 [Compound I-250, (3R)-3-amino-4-(4-((1R)-1-(5-cyano-4-(5-(trifluoromethyl)-1H-pyrrolo[2,3-b]pyridin-3-yl)pyrimidin-2-ylamino)ethyl)piperidin-1-yl)-4-oxobutanamide]
14 | < 3 | CC(Nc1ncc(C#N)c(-c2c[nH]c3ncc(C(F)(F)F)cc23)n1)C1(F)CCN(C(=O)CN)CC1 (centres unmarked) [Compound I-234, 2-(1-(1-(2-aminoacetyl)-4-fluoropiperidin-4-yl)ethylamino)-4-(5-(trifluoromethyl)-1H-pyrrolo[2,3-b]pyridin-3-yl)pyrimidine-5-carbonitrile]
15 | 3 to 40 | CC(C)Nc1ncc(C#N)c(-c2c[nH]c3ncc(C(F)(F)F)cc23)n1 [Compound I-3, 2-(isopropylamino)-4-(5-(trifluoromethyl)-1H-pyrrolo[2,3-b]pyridin-3-yl)pyrimidine-5-carbonitrile]
16 | < 3 | C[C@H](O)[C@@H](N)C(=O)N1CCC([C@@H](C)Nc2ncc(C#N)c(-c3c[nH]c4ncc(C(F)(F)F)cc34)n2)CC1 [Compound I-249, 2-((R)-1-(1-((2R,3S)-2-amino-3-hydroxybutanoyl)piperidin-4-yl)ethylamino)-4-(5-(trifluoromethyl)-1H-pyrrolo[2,3-b]pyridin-3-yl)pyrimidine-5-carbonitrile]
17 | < 3 | CC(Nc1ncc(C#N)c(-c2c[nH]c3ncc(C(F)(F)F)cc23)n1)C1CCN(C(=O)CN(C)C)CC1 (centres unmarked) [Compound I-193, 2-(1-(1-(2-(dimethylamino)acetyl)piperidin-4-yl)ethylamino)-4-(5-(trifluoromethyl)-1H-pyrrolo[2,3-b]pyridin-3-yl)pyrimidine-5-carbonitrile]
18 | 3 to 40 | CC(Nc1ncc(C#N)c(-c2c[nH]c3ncc(C(F)(F)F)cc23)n1)c1ccc(N2CC(O)(C3CC3)C2)nc1 (centres unmarked) [Compound I-194, 2-(1-(6-(3-cyclopropyl-3-hydroxyazetidin-1-yl)pyridin-3-yl)ethylamino)-4-(5-(trifluoromethyl)-1H-pyrrolo[2,3-b]pyridin-3-yl)pyrimidine-5-carbonitrile]
19 | < 3 | C[C@@H](Nc1ncc(C#N)c(-c2c[nH]c3ncc(C(F)(F)F)cc23)n1)c1ccc(NC2CCN(C)CC2)nc1 [Compound I-297, 2-((R)-1-(6-(1-methylpiperidin-4-ylamino)pyridin-3-yl)ethylamino)-4-(5-(trifluoromethyl)-1H-pyrrolo[2,3-b]pyridin-3-yl)pyrimidine-5-carbonitrile]
20 | < 3 | C[C@@H](Nc1ncc(C#N)c(-c2c[nH]c3ncc(C(F)(F)F)cc23)n1)C1CCN(C(=O)C(C)(C)O)CC1 [Compound I-206, 2-((R)-1-(1-(2-hydroxy-2-methylpropanoyl)piperidin-4-yl)ethylamino)-4-(5-(trifluoromethyl)-1H-pyrrolo[2,3-b]pyridin-3-yl)pyrimidine-5-carbonitrile]
21 | 3 to 40 | C=C1CC(C(C)Nc2ncc(C#N)c(-c3c[nH]c4ncc(C(F)(F)F)cc34)n2)C1 (centres unmarked) [Compound I-214, 2-(1-(3-methylenecyclobutyl)ethylamino)-4-(5-(trifluoromethyl)-1H-pyrrolo[2,3-b]pyridin-3-yl)pyrimidine-5-carbonitrile]
22 | < 3 | CC(=O)N1CCC([C@@H](C)Nc2ncc(C#N)c(-c3c[nH]c4ncc(C(F)(F)F)cc34)n2)CC1 [Compound I-134, 2-((R)-1-(1-acetylpiperidin-4-yl)ethylamino)-4-(5-(trifluoromethyl)-1H-pyrrolo[2,3-b]pyridin-3-yl)pyrimidine-5-carbonitrile]
23 | < 3 | CC(Nc1ncc(C#N)c(-c2c[nH]c3ncc(C(F)(F)F)cc23)n1)C1CCN(C(=O)C2CC2)CC1 (centres unmarked) [Compound I-159, 2-(1-(1-(cyclopropanecarbonyl)piperidin-4-yl)ethylamino)-4-(5-(trifluoromethyl)-1H-pyrrolo[2,3-b]pyridin-3-yl)pyrimidine-5-carbonitrile]
24 | 3 to 40 | N#Cc1cnc(NCC2CCCCC2)nc1-c1c[nH]c2ncc(C(F)(F)F)cc12 [Compound I-29, 2-(cyclohexylmethylamino)-4-(5-(trifluoromethyl)-1H-pyrrolo[2,3-b]pyridin-3-yl)pyrimidine-5-carbonitrile]
25 | 3 to 40 | CC(Nc1ncc(C#N)c(-c2c[nH]c3ncc(C(F)(F)F)cc23)n1)c1ccc(N2CC(F)(C3CC3)C2)nc1 (centres unmarked) [Compound I-191, 2-(1-(6-(3-cyclopropyl-3-fluoroazetidin-1-yl)pyridin-3-yl)ethylamino)-4-(5-(trifluoromethyl)-1H-pyrrolo[2,3-b]pyridin-3-yl)pyrimidine-5-carbonitrile]
26 | < 3 | CCC(=O)N1CCC(C(C)Nc2ncc(C#N)c(-c3c[nH]c4ncc(C(F)(F)F)cc34)n2)CC1 (centres unmarked) [Compound I-187, 2-(1-(1-propionylpiperidin-4-yl)ethylamino)-4-(5-(trifluoromethyl)-1H-pyrrolo[2,3-b]pyridin-3-yl)pyrimidine-5-carbonitrile]
27 | 3 to 40 | C[C@@H](Nc1ncc(C#N)c(-c2c[nH]c3ncc(C(F)(F)F)cc23)n1)C1CCNCC1 [Compound I-204, 2-((R)-1-(piperidin-4-yl)ethylamino)-4-(5-(trifluoromethyl)-1H-pyrrolo[2,3-b]pyridin-3-yl)pyrimidine-5-carbonitrile]
28 | > 40 | C[C@H](Nc1ncc(C#N)c(-c2c[nH]c3ncc(Cl)cc23)n1)C(=O)NCC(F)(F)F [IA-6, (2S)-2-(4-(5-chloro-1H-pyrrolo{2,3-b]pyridin-3-yl)-5-cyanopyrimidin-2-ylamino)-N-(2,2,2-trifluoroethyl)propanamide]
29 | < 3 | C[C@@H](Nc1ncc(C#N)c(-c2c[nH]c3ncc(C(F)(F)F)cc23)n1)c1ccc(C(N)=O)cc1 [Compound I-176, 4-((1R)-1-(5-cyano-4-(5-(trifluoromethyl)-1H-pyrrolo[2,3-b]pyridin-3-yl)pyrimidin-2-ylamino)ethyl)benzamide]
